Measured values as given in US10618886B1, “Compounds as neuronal histamine receptor-3 antagonists and uses thereof” (XW LABORATORIES INC., priority 2018, dated 2020).

Assays:
[1] = target: T1, histamine H3 receptor (hH3R) (Homo sapiens (Human), UniProt Q9Y5N1); test: [35S]-GTPγS binding assay, antagonist mode, HEK293/Ga15/hH3R membranes; type: biochemical; details: agonist R-alpha-methylhistamine 1 μM, 10 points, 3-fold dilution from 1 μM
Procedure: (§1) The histamine H3 receptors mediate the histamine signals in CNS and peripheral nervous system. Histamine H3 receptors couple directly to a Gi/Go, resulting in subsequent GTPγδ binding. Although GTPγδ binding assays are carried out using membrane preparations in the similar way as radioligand binding assays, these are functional assays and can be used to differentiate agonist, antagonist, and inverse agonist activities. Such assays are carried out using [^35S]-guanosine-5′-O-(3-thio) triphosphate which provides a radioactive ligand with high affinity for G-protein a subunits that is highly resistant to the inherent GTPase activity of a subunits, such that it remains bound for sufficient periods of time to allow counting of radioactivity. The GTPγδ binding assay was performed using HEK293/Ga15/hH3R cell line with high histamine H3 receptors expression to determine H3 receptor GTPγδ binding affinity of representative compounds.
(§2) 1. [^35S]-GTPγδ binding assay for determining antagonist and inverse agonist pharmacological parameters of histamine H3 receptor ligands:
(§3) Experimental procedure: 1) Membrane preparation for HEK293/Ga15/hH3R; 2) Standard binding assay. Briefly, for membrane […], HEK293/Ga15/hH3R cells were grown to confluence, harvested and the cell pellets were suspended in TEL buffer (50 mM Tris-HCl buffer, 1 mM EGTA, 0.1 mM PMSF). Homogenate and centrifuge at 1,000 g for 10 min. Centrifuge the supernatant at 46,000 g for 30 min. Suspend the membrane pellet in 50 mM Tris with 0.32 M sucrose, pH 7.0. Aliquot at 1 mg protein/mL. Keep frozen and store at −80° C. until use. All compounds were prepared by dissolving in DMSO to make 10 mM stock. The 10 mM stock was used as top concentration […] to carry out 10-points, 3-fold dilution scheme using DMSO in a 96-well plate to make the compound dose plate. H3R GTPγδ binding assay was performed as followings: thaw the membrane at 37° C., chill on ice, add GDP and the membrane to assay buffer (50 mM Tris-HCl, 100 mM NaCl, 5 mM MgCl2, pH 7.4, and 0.2%, BSA). Stay on ice for 20 min. […] Add 20 μL [^35S]-GTPγδ (final 200 pM) and incubate at room temperature for 60 min. For antagonist mode: Add 20 μL agonist (R-alpha-methylhistamine, final concentration 1 μM), 20 μL testing compound (final top concentration 1 μM, 3-fold dilution, 10 points), 20 μL [^35S]-GTPγδ (final 200 pM), 140 μL membrane solution (total 200 μL, GDP 10μM, membrane protein 20 μg/well) to the assay plate. Incubate at room temperature for 60 min. Filter the assay plate on GF/C (non-PEI coated) plate to stop the assay. Dry GF/C plate for 1 h. Add 50 μL scintillation fluid and count on the MicroBeta.
(§4) Data Analysis: The CPM values were calculated into % of inhibition with the following formula:
For antagonist mode: % of inhibition=(R-alpha-methyl-histamine control CPM−Compound CPM)/(R-alpha-methyl-histamine control CPM−DMSO control CPM)×100.
(§5) IC50s were calculated using Prism5 with log(inhibitor) vs. response equation.

[2] = target: T1, histamine H3 receptor (hH3R); test: [35S]-GTPγS binding assay, inverse agonist mode, HEK293/Ga15/hH3R membranes; type: biochemical; details: no agonist, 10 points, 3-fold dilution from 1 μM
Procedure: as §1, §2, §3, §4
For inverse agonist mode: % of inhibition=(DMSO control CPM−Compound CPM)/(DMSO control CPM−GTP control CPM)×100.
as §5

T1 sequence (Q9Y5N1 whole entry): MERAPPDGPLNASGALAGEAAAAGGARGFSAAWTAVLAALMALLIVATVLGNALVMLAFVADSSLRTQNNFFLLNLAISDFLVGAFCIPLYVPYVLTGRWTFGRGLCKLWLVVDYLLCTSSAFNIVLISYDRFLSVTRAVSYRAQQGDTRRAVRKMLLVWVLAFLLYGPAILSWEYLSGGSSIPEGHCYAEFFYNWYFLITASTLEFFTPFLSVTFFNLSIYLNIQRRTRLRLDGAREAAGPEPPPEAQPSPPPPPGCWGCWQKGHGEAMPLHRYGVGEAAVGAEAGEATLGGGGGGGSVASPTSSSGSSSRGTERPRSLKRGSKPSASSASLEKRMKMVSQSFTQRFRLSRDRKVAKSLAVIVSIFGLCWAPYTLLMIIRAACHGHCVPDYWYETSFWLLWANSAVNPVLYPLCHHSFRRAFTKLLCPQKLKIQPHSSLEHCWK

SMILES	IC50 [1]	IC50 [2]
COc1cc(OCCCN2CCCC2)ccc1-n1c(C)nc2ccc(S(F)(F)(F)(F)F)cc2c1=O [VI, 3-(2-methoxy-4-(3-(pyrrolidin-1-yl)propoxy)phenyl)-2-methyl-6-(pentafluorosulfanyl)quinazolin-4(3H)-one]	5.36 nM	5.5 nM
Cc1nc2ccc(S(F)(F)(F)(F)F)cc2c(=O)n1-c1ccc(OCCCN2CCC(C)C2)cc1 (centres unmarked) [VII, 2-methyl-3-(4-(3-(3-methylpyrrolidin-1-yl)propoxy)phenyl)-6-(pentafluorosulfanyl)quinazolin-4(3H)-one]	3.44 nM	10.5 nM
Cc1nc2ccc(S(F)(F)(F)(F)F)cc2c(=O)n1-c1ccc(OC2CCN(C(=O)C3CCCCC3)CC2)cc1 [XIX, 3-(4-((1-(cyclohexanecarbonyl)piperidin-4-yl)oxy)phenyl)-2-methyl-6-(pentafluorosulfanyl)quinazolin-4(3H)-one]	> 1000 nM	> 1000 nM
Cc1nc2ccc(S(F)(F)(F)(F)F)cc2c(=O)n1-c1ccc(OC2CCN(C3CCCC3)CC2)cc1 [XVI]	116 nM	175 nM
Cc1nc2ccc(S(F)(F)(F)(F)F)cc2c(=O)n1-c1ccc(OC2CCN(C(=O)C3CCN(C)CC3)CC2)cc1 [XX, 2-methyl-3-(4-((1-(1-methylpiperidine-4-carbonyl)piperidin-4-yl)oxy)phenyl)-6-(pentafluorosulfanyl)quinazolin-4(3H)-one]	814 nM	50.5 nM
Cc1nc2ccc(S(F)(F)(F)(F)F)cc2c(=O)n1-c1ccc(OC2CCN(C(=O)C3CCOCC3)CC2)cc1 [XXI, 2-methyl-3-(4-((1-(tetrahydro-2H-pyran-4-carbonyl)piperidin-4-yl)oxy)phenyl)-6-(pentafluorosulfanyl)quinazolin-4(3H)-one]	> 1000 nM	286 nM
COc1cc(OC2CCN(C(=O)C3CCOCC3)CC2)ccc1-n1c(C)nc2ccc(S(F)(F)(F)(F)F)cc2c1=O [XXII, 3-(2-methoxy-4-((1-(tetrahydro-2H-pyran-4-carbonyl)piperidin-4-yl)oxy)phenyl)-2-methyl-6-(pentafluorosulfanyl)quinazolin-4(3H)-one]	242 nM	229 nM
